Read-outs that look alike come from different tables or passages of the source.
How the values were obtained:
CLK2 kinase = CLK2 kinase (Homo sapiens, UniProt P49760); test: CLK2 kinase activity assay (Z-lyte FRET); format: biochemical; settings: Z-lyte Ser/Thr 6 peptide, 60 μM ATP, 1 h at room temperature;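 note: FRET read-out as coumarin to fluorescein emission ratio, unphosphorylated peptide as 0% and phosphorylated peptide as 100% controls, duplicate reactions, non-linear regression fit of dose-response curves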
CLK3 kinase = CLK3 kinase (Homo sapiens, UniProt P49761); test: CLK3 kinase activity assay (Z-lyte FRET); format: biochemical; settings: Z-lyte Ser/Thr 18 peptide, 156 μM ATP, 1 h at room temperature;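 note: kinase activity read as coumarin/fluorescein emission ratio by FRET, unphosphorylated peptide as 0% and phosphorylated peptide as 100% control, values from non-linear regression of dose-response curves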
[1] = tested on: primary human mesenchymal stem cells (hMSCs); test: Chondrogenesis screening using primary human mesenchymal stem cells; format: cell-based; settings: hMSC chondrogenesis; for EC50: concentration required to induce 50% levels of chondrogenesis with TGF-β3 as positive control, read-out: Conc (nM) of 50% TGF-β3 activity; for Emax: read-out: Max. Activity as % TGF-β3 activity
Excerpt: Representative compounds were screened using primary human mesenchymal stem cells (hMSCs) to determine their ability to induce chondrogenesis (process by which cartilage is developed).
Human Mesenchymal Stem Cell Culture: Primary human mesenchymal stem cells (hMSCs) were purchased from Lonza (Walkersville, Md.) and expanded in Mesenchymal Stem Cell Growth Media (Lonza). Cells between passage 3 and 6 were used for the experiments.
Area of nodules in each well was normalized to the average of 3 DMSO treated wells on the same plate using Excel (Microsoft Inc.). The normalized averages (fold change over DMSO) of 2 or 3 replicate wells for each compound concentration were calculated. Due to solubility limitations of some of the compounds, curve fitting was incomplete leading to inaccurate EC50 determinations.
Using TGF-β3 as a positive control, the concentration of representative compounds required to induce 50% levels of chondrogenesis is reported. In addition, the maximum activity of each compound and the respective dose that each compound reached maximum chondrogenesis activity is reported.

[2] = tested on: Wnt pathway activity (SW480 colon carcinoma cells stably expressing the Sp5-Luc reporter); test: Wnt pathway activity screening assay (Sp5-Luc reporter gene assay); settings: SW480 cells stably expressing Sp5-Luc reporter, 10-point dose-response from 10 μM, 36 to 48 hours
[3] = Homo sapiens, Mesenchymal stem cells
[4] = Homo sapiens, Mesenchymal stem cells, maximum activity relative to TGF-β3 (10 ng/mL) positive control

CLK2 kinase, sequence (P49760 whole entry): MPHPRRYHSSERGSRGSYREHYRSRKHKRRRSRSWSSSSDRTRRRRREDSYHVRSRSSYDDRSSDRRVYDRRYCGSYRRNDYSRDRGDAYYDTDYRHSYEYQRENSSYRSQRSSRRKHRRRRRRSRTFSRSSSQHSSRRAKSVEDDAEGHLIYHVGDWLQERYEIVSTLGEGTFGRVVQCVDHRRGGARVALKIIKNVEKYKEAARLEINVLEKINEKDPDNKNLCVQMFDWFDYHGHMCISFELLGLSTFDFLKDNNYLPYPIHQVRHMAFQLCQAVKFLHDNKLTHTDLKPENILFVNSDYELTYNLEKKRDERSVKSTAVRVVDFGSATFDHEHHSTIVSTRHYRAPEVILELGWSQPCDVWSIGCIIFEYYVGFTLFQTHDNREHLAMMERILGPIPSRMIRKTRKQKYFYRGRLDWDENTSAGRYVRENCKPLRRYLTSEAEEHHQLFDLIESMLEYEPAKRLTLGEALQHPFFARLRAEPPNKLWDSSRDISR
CLK3 kinase, sequence (P49761 whole entry): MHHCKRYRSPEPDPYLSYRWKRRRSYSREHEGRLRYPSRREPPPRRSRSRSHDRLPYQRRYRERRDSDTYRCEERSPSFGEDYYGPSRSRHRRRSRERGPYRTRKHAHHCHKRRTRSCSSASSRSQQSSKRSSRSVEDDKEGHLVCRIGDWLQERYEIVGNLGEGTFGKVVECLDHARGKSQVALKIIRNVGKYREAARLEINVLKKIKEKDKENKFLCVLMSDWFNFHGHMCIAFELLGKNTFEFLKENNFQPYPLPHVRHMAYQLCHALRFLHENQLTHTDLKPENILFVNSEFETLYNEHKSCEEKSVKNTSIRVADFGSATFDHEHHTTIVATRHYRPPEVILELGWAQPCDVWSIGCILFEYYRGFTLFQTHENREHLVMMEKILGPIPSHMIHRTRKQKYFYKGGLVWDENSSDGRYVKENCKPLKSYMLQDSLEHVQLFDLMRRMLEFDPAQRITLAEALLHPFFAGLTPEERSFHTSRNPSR

SMILES	EC50 (CLK2 kinase)	EC50 (CLK3 kinase)	EC50 [1, 3]	Emax [1, 4]	EC50 ([2]; Homo sapiens, SW480, Table 4)	EC50 [1]	Max. Activity as % TGF-β3 activity ([1]; maximum activity relative to TGF-β3 (10 ng/mL) positive control)	EC50 ([2]; Table 4)
CN(C)Cc1cncc(-c2cc3c(-c4nc5c(-c6cccc(F)c6)cccc5[nH]4)n[nH]c3cn2)c1 [compound 135]	4 nM	41 nM	100 nM	311%	82.2 nM			
CN(C)Cc1cncc(-c2ccc3[nH]nc(-c4nc5c(-c6cccc(F)c6)cccc5[nH]4)c3n2)c1 [compound 136]	2 nM	109 nM	30 nM	84.6%	637 nM			
CN(C)Cc1cncc(-c2cnc3[nH]nc(-c4nc5c(-c6cccc(F)c6)cncc5[nH]4)c3c2)c1 [compound 137]	1 nM	7 nM	30 nM	183%	13 nM			
CN(C)Cc1cncc(-c2ccc3[nH]nc(-c4nc5c(-c6cccc(F)c6)nccc5[nH]4)c3n2)c1 [compound 138]	1 nM	197 nM	30 nM	75.6%	1050 nM			
CN(C)Cc1cncc(-c2ccc3[nH]nc(-c4nc5c(-c6cccc(F)c6)cncc5[nH]4)c3n2)c1 [compound 139]	3 nM	79 nM		16.7%	1050 nM			
Fc1cccc(-c2cncc3[nH]c(-c4n[nH]c5ccc(-c6cncc(CN7CCC(F)(F)C7)c6)cc45)nc23)c1 [compound 141]	9 nM	33 nM		102%	26.4 nM	30 nM		
Fc1cccc(-c2cncc3[nH]c(-c4n[nH]c5ccc(-c6cncc(CN7CCC(F)(F)C7)c6)cc45)nc23)c1 [compound 142]	21 nM	90 nM				10 nM	85.77%	19.1 nM
Oc1cncc(-c2ccc3[nH]nc(-c4nc5c(-c6cccc(F)c6)cccc5[nH]4)c3c2)c1 [compound 143]	17 nM	45 nM		52.2%	11 nM			
Oc1cncc(-c2ccc3[nH]nc(-c4nc5c(-c6cccc(F)c6)nccc5[nH]4)c3n2)c1 [compound 144]	5 nM	93 nM	6.86 nM	56.7%	460 nM			
Oc1cncc(-c2ccc3[nH]nc(-c4nc5c(-c6cccc(F)c6)cncc5[nH]4)c3n2)c1 [compound 145]	5 nM	74 nM	20.6 nM	53.6%	> 10000 nM			
Oc1cncc(-c2ccc3[nH]nc(-c4nc5c(-c6cccc(F)c6)ccnc5[nH]4)c3n2)c1 [compound 146]	5 nM	113 nM	2.29 nM	59.3%	375 nM			
COc1cncc(-c2cc3c(-c4nc5c(-c6cccc(F)c6)cncc5[nH]4)n[nH]c3cn2)c1 [compound 147]	9 nM	493 nM	300 nM	140%	31.3 nM			
COc1cncc(-c2ccc3[nH]nc(-c4nc5c(-c6cccc(F)c6)nccc5[nH]4)c3n2)c1 [compound 148]	4 nM	124 nM	20.6 nM	60.4%	120 nM			
Fc1cccc(-c2ccnc3[nH]c(-c4n[nH]c5ncc(-c6cn[nH]c6)cc45)nc23)c1 [compound 153]	11 nM	93 nM	100 nM	110%	30.2 nM			
Cn1cc(-c2cnc3[nH]nc(-c4nc5c(-c6cccc(F)c6)nccc5[nH]4)c3c2)cn1 [compound 155]	14 nM	138 nM	30 nM	74.9%	11.1 nM			
Cn1cc(-c2cc3c(-c4nc5c(-c6cccc(F)c6)nccc5[nH]4)n[nH]c3cn2)cn1 [compound 156]	10 nM	1800 nM	100 nM	110%	10 nM			
Cn1cc(-c2cc3c(-c4nc5c(-c6cccc(F)c6)cncc5[nH]4)n[nH]c3cn2)cn1 [compound 157]	2 nM	416 nM	100 nM	71%	70 nM			
Cc1ncc(-c2ccc3[nH]nc(-c4nc5c(-c6cccc(F)c6)cccc5[nH]4)c3n2)n1C [compound 158]	3 nM	83 nM	10 nM	112%	150 nM			

SMILES	EC50 (CLK2 kinase)	EC50 (CLK3 kinase)	EC50 [1, 3]	Emax [1, 4]	EC50 ([2]; Homo sapiens, SW480, Table 4)	EC50 [1]	Max. Activity as % TGF-β3 activity ([1]; maximum activity relative to TGF-β3 (10 ng/mL) positive control)	EC50 ([2]; Table 4)
Cc1ncc(-c2cnc3[nH]nc(-c4nc5c(-c6cccc(F)c6)nccc5[nH]4)c3c2)n1C [compound 159]	1 nM	34 nM	100 nM	152%	12.5 nM			
CCC(=O)Nc1cncc(-c2cnc3[nH]nc(-c4nc5c(-c6ccc(F)cc6)cncc5[nH]4)c3c2)c1 [compound 160]	3 nM	37 nM	300 nM	143%	11 nM			
CC(C)(C)C(=O)Nc1cncc(-c2ccc3[nH]nc(-c4nc5c(-c6ccc(F)cc6)cncc5[nH]4)c3c2)c1 [compound 161]	17 nM	105 nM	100 nM	128%	4 nM			
CC(C)(C)C(=O)Nc1cncc(-c2ccc3[nH]nc(-c4nc5c(-c6ccc(F)cc6)cncc5[nH]4)c3n2)c1 [compound 162]	8 nM	9840 nM		41.8%	2730 nM			
CC(C)CC(=O)Nc1cncc(-c2ccc3[nH]nc(-c4nc5c(-c6ccc(F)cc6)cncc5[nH]4)c3c2)c1 [compound 163]	32 nM	75 nM	100 nM	125%	57 nM			
O=C(Nc1cncc(-c2ccc3[nH]nc(-c4nc5c(-c6ccc(F)cc6)cncc5[nH]4)c3c2)c1)C1CCC1 [compound 164]	28 nM	87 nM	100 nM	203%	5.7 nM			
Nc1cncc(-c2ccc3[nH]nc(-c4nc5c(-c6ccccc6F)nccc5[nH]4)c3c2)c1 [compound 165]	2 nM	20 nM	100 nM	61.9%	8.8 nM			
Nc1cncc(-c2ccc3[nH]nc(-c4nc5c(-c6ccccc6F)cccc5[nH]4)c3n2)c1 [compound 166]	3 nM	209 nM	30 nM	81.8%	1070 nM			
Nc1cncc(-c2ccc3[nH]nc(-c4nc5c(-c6ccccc6F)ccnc5[nH]4)c3c2)c1 [compound 167]	4 nM	19 nM	30 nM	113%	2 nM			
Nc1cncc(-c2cnc3[nH]nc(-c4nc5c(-c6ccccc6F)ccnc5[nH]4)c3c2)c1 [compound 168]	33 nM	76 nM	300 nM	59.9%	12.3 nM			
Nc1cncc(-c2ccc3[nH]nc(-c4nc5c(-c6ccccc6F)nccc5[nH]4)c3n2)c1 [compound 169]	1 nM	50 nM	10 nM	108%	> 10000 nM			
Nc1cncc(-c2ccc3[nH]nc(-c4nc5c(-c6ccccc6F)cncc5[nH]4)c3n2)c1 [compound 170]	1 nM	12 nM	10 nM	98.2%	> 10000 nM			
Nc1cncc(-c2ccc3[nH]nc(-c4nc5c(-c6ccccc6F)ccnc5[nH]4)c3n2)c1 [compound 171]	1 nM	34 nM	10 nM	127%	> 10000 nM			
CCCC(=O)Nc1cncc(-c2cnc3[nH]nc(-c4nc5c(-c6ccccc6F)cncc5[nH]4)c3c2)c1 [compound 172]	7 nM	117 nM		82.8%	8 nM			
CC(C)C(=O)Nc1cncc(-c2ccc3[nH]nc(-c4nc5c(-c6ccccc6F)cncc5[nH]4)c3n2)c1 [compound 174]	4 nM	9840 nM	10 nM	181%	> 10000 nM			
O=C(Nc1cncc(-c2ccc3[nH]nc(-c4nc5c(-c6ccccc6F)cccc5[nH]4)c3n2)c1)C(F)(F)F [compound 175]	5 nM	180 nM		40.1%	823 nM			
O=C(Nc1cncc(-c2ccc3[nH]nc(-c4nc5c(-c6ccccc6F)ccnc5[nH]4)c3n2)c1)C(F)(F)F [compound 176]	6 nM	149 nM	10 nM	74%	> 10000 nM			

Reference: patent US20230000842A1, “METHODS OF TREATING CARTILAGE DISORDERS THROUGH INHIBITION OF CLK AND DYRK” (SAMUMED, LLC, priority 2019, published 2023)
